# Source: PubChem BioAssay (NCI)
#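 Protocol summary: plate cells (96-well), add compound at 5 concentrations, incubate 48 h, interpolate endpoints linearly. The concentration for 50% growth inhibition is given as GI50. TGI is the concentration that stops growth completely.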
# How the values were obtained:
# Assay in all cases: inhibition of tumour cell growth, NCI panel, 48 h
# 786-0 renal = system: 786-0 renal
# CCRF-CEM leukemia = system: CCRF-CEM leukemia
# COLO 205 colon = system: COLO 205 colon
# EKVX NSCLC = system: EKVX NSCLC
# HOP-92 NSCLC = system: HOP-92 NSCLC
# K-562 leukemia = system: K-562 leukemia
# M14 melanoma = system: M14 melanoma
# MOLT-4 leukemia = system: MOLT-4 leukemia
# SN12C renal = system: SN12C renal
# UACC-62 melanoma = system: UACC-62 melanoma
SMILES,GI50 (786-0 renal) [µM],TGI (786-0 renal) [µM],GI50 (CCRF-CEM leukemia) [µM],TGI (CCRF-CEM leukemia) [µM],GI50 (COLO 205 colon) [µM],TGI (COLO 205 colon) [µM],GI50 (EKVX NSCLC) [µM],TGI (EKVX NSCLC) [µM],GI50 (HOP-92 NSCLC) [µM],TGI (HOP-92 NSCLC) [µM],GI50 (K-562 leukemia) [µM],TGI (K-562 leukemia) [µM],GI50 (M14 melanoma) [µM],TGI (M14 melanoma) [µM],GI50 (MOLT-4 leukemia) [µM],TGI (MOLT-4 leukemia) [µM],GI50 (SN12C renal) [µM],TGI (SN12C renal) [µM],GI50 (UACC-62 melanoma) [µM],TGI (UACC-62 melanoma) [µM]
CN(C)CCNc1nc2ccccc2c2c1c1c(n2Cc2ccccc2)-c2ccccc2C1=O,19.2,38.3,7.86,24.1,16.6,65.3,16.3,32.3,6.19,21.2,3.89,21.2,18.6,40.7,4.77,18.5,12.6,27.5,18.3,34.3
O=C1C(Br)=C[C@H]2C3C=CC(Br)(C3=O)[C@@H]12 (stereo not given in full),–,48.2,–,13.7,–,21.4,–,28.8,–,29.7,–,> 100,–,21.6,–,27.2,–,25.9,–,14.9
CC1(C)C(=O)N(c2ccccc2)C(=O)N1c1nc2ccccc2[nH]1,–,> 100,–,> 100,–,> 100,–,> 100,–,> 100,–,> 100,–,> 100,–,> 100,–,> 100,–,> 100
N#CCCc1nc2ccc(Br)cc2c(=O)n1CCO,–,> 100,–,> 100,–,> 100,–,> 100,–,> 100,–,> 100,–,> 100,–,> 100,–,> 100,–,> 100
CCOC(=O)[C@@H](C)C[C@H](Cc1ccccc1)NC(=O)c1csc([C@@H](C[C@H](C(C)C)N(C)C(=O)[C@@H](NC(=O)[C@H]2C[C@H](O[Si](C)(C)C(C)(C)C)CCN2C)C(C)C)OC(C)=O)n1,0.286,> 4.36,0.298,> 6.87,0.145,0.459,0.505,> 8.33,0.181,6.06,0.17,> 5.06,0.198,1.03,0.354,> 8.33,0.389,6.42,0.0545,3.58
COc1cc(OC2OC(C)C(O)C(O)C2O)cc2oc(-c3ccc(O)cc3)c(CC=C(C)C)c(=O)c12 (stereo not given),11.7,60,5.97,31.8,10,22.1,25.6,99.4,12.4,54.8,7.91,27.9,19.2,39.8,3.45,17.7,12.3,45.3,12.8,31.9
C=CCc1cc2cccc(OC)c2oc1=O,–,> 100,–,> 100,–,> 100,–,> 100,–,> 100,–,> 100,–,> 100,–,> 100,–,> 100,–,> 100
CCC(=O)c1cn(C)c(=O)c2ccccc12,–,> 100,–,> 100,–,> 100,–,> 100,–,> 100,–,> 100,–,> 100,–,> 100,–,> 100,–,> 100
CCN(CC)CCC1CC/C(=C\c2ccc(OC)cc2)C1=O (stereo not given),–,> 100,–,> 100,–,38.9,–,> 100,–,> 100,–,> 100,–,> 100,–,> 100,–,> 100,–,34.7
Clc1nc(Oc2ccccc2)nc(-c2cn(-c3ccccc3)c3ccccc23)n1,18.6,35.6,3.99,20.3,10.6,24.6,14.6,46.9,4.07,20.7,0.4,18.1,5.32,17.1,0.79,21.9,6.18,20.1,13.2,26.6
COc1ccc(NC(=O)C2C(=O)N(c3ccc(OC)cc3)C(=O)/C2=N/O)cc1 (stereo not given),–,41.9,–,> 100,–,> 100,–,97.2,–,47.8,–,> 100,–,> 86.6,–,> 100,–,71.9,–,45.8
CC(=O)CC1CCC(=O)CCC(=O)OC(CC(C)=O)CCC(=O)CCC(=O)O1 (stereo not given),–,> 100,–,> 100,–,> 100,–,> 100,–,> 100,–,> 100,–,> 100,–,> 100,–,> 100,–,> 100
COc1ccc(-c2c(C3=NCCN3)nnn2-c2ccccc2)cc1,–,> 100,–,> 100,–,> 100,–,> 100,–,> 100,–,> 100,–,> 100,–,> 100,–,> 100,–,> 100
C[CH2][Sn]1([CH2]C)[O]C(=O)[O][Sn]([CH2]C)([CH2]C)[O]1,17.6,32,5.39,31.8,> 41.1,> 57.1,> 41.8,> 57,17.7,33.1,13.7,78.1,18.8,33.1,41.7,> 100,> 63.4,> 100,16.8,32.5
CC(=O)NC(CCCCNC(=O)OCc1ccccc1)C(=O)NCc1ccccc1 (stereo not given),–,> 100,–,> 100,–,> 100,–,> 100,–,> 100,–,> 100,–,> 100,–,> 100,–,> 100,–,> 100
COc1cc(-c2cc(=O)c3cc4c(cc3[nH]2)OCO4)cc(OC)c1OC,–,> 100,–,> 100,–,> 100,–,> 100,–,69,–,> 100,–,> 100,–,> 100,–,> 100,–,> 100
O=C(Oc1ccc(O)c2c(=O)n3c(cc12)[nH]c1ccccc13)c1ccccc1,14.4,32.5,3.71,20.7,19.9,45.3,24.3,> 100,23.8,53.4,24.4,64,17.9,37,16.4,62.6,12.6,54,13.7,27.5
